# Experimental data as given in article PMC10557616 (bioRxiv, 2023).
# Assays:
# Type in all cases: biochemical
# Conditions in all cases: phosphocreatine as phosphate donor
# CKM [1] = molecular target: T1, CKM (Homo sapiens, UniProt P06732); experiment: uHPLC-MS detection of TFV-DP
# [2] = molecular target: T2, creatine kinase U-type (CKMT1) (Homo sapiens, UniProt P12532); experiment: uHPLC-MS detection of TFV-DP
# CKM [3] = molecular target: T1, CKM; experiment: uHPLC-MS detection of ATP
# [4] = molecular target: T2, creatine kinase U-type (CKMT1); experiment: uHPLC-MS detection of ATP
# T1 sequence (P06732 whole entry): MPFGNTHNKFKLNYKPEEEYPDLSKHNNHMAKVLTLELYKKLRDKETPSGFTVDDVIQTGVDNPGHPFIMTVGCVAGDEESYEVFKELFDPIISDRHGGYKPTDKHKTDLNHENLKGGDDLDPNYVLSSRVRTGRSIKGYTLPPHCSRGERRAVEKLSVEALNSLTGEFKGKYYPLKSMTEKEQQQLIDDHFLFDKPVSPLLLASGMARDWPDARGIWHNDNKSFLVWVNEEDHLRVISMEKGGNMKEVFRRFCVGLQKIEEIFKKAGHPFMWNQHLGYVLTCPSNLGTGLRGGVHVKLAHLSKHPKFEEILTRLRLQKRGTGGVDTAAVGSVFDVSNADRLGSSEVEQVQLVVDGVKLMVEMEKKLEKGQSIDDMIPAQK
SMILES,uHPLC-MS detection of TFV-DP (CKM [1]),uHPLC-MS detection of TFV-DP [2],uHPLC-MS detection of ATP (CKM [3]),uHPLC-MS detection of ATP [4]
C[C@H](Cn1cnc2c(N)ncnc21)OCP(=O)(O)OP(=O)(O)O [TFV-MP],"no significant differences in TFV-DP levels between the CKM, CKB, or CKMT1 catalyzed reactions","no significant differences in TFV-DP levels between the CKM, CKB, or CKMT1 catalyzed reactions",–,–
Nc1ncnc2c1ncn2[C@@H]1O[C@H](COP(=O)(O)OP(=O)(O)O)[C@@H](O)[C@H]1O [ADP],–,–,the proteins were incubated with phosphocreatine and ADP and ATP was detected by uHPLC-MS,the proteins were incubated with phosphocreatine and ADP and ATP was detected by uHPLC-MS
